In US6391882B1, “4,5,6 and 7-indole and indoline derivatitives, their preparation and use” (H. Lundbeck A/S, priority 1998, dated 2002):
Counter-ions that a name gives are not always drawn. Like-named read-outs stand apart in the source and are kept apart here.

Columns and labels:
[1] = target: T1, cloned human 5-HT1A receptors (Homo sapiens, UniProt P08908); assay: Inhibition of 3H-5-CT binding to human 5-HT1A receptors
T1 construct: expressed in transfected cells; host or cells: HeLa cells (HA7)
T1 sequence (P08908 1-422): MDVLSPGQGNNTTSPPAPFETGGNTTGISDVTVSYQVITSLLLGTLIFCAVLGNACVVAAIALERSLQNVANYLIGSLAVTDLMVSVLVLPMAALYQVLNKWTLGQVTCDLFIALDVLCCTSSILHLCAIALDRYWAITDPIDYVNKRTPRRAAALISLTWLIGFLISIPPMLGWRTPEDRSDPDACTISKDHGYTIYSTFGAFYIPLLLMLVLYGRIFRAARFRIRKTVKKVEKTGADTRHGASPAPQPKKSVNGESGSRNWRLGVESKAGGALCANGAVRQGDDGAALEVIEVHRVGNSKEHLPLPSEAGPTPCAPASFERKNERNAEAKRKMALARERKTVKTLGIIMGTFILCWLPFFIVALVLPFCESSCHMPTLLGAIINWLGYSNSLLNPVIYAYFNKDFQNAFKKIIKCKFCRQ
Method: The affinity of the compounds of the invention to 5-HT1A receptors was determined by measuring the inhibition of binding of a radioactive ligand at 5-HT1A receptors as described in the following test:
Inhibition of ^3H-5-CT Binding to Human 5HT1A Receptors
By this method the inhibition by drugs of the binding of the 5-HT1A agonist ^3H-5-carboxamido tryptamine (^3H-5-CT) to cloned human 5-HT1A receptors stably expressed in transfected HeLa cells (HA7) (Fargin, A. et al, J. Biol. Chem., 1989, 264, 14848) is determined in vitro. The assay was performed as a modification of the method described by Harrington, M. A. et al, J. Pharmacol. Exp. Ther., 1994, 268, 1098. Human 5-HT1A receptors (40 μg of cell homogenate) were incubated for 15 minutes at 37° C. in 50 mM Tris buffer at pH 7.7 in the presence of ^3H-5-CT. Non-specific binding was determined by including 10 μM of metergoline. The reaction was terminated by rapid filtration through Unifilter GF/B filters on a Tomtec Cell Harvester. Filters were counted in a Packard Top Counter.

[2] = target: T2, Serotonin reuptake (whole rat brain synaptosomes) (Rattus norvegicus, UniProt P31652); assay: Inhibition of 3H-5-HT uptake into rat brain synaptosomes; format: biochemical
T2 construct: from tissue; host or cells: whole rat brain synaptosomes
Method: Inhibition of ^3H-5-HT Uptake Into Rat Brain Synaptosomes
Using this method the ability of drugs to inhibit the accumulation of ^3H-5-HT into whole rat brain synaptosomes is determined in vitro.

[3] = cloned human 5-HT1A receptors in transfected HeLa cells (HA7), 15 minutes at 37° C., pH 7.7
[4] = 3H-5-HT accumulation into whole rat brain synaptosomes, in vitro, read-out: Inhibition of Serotonin reuptake IC50

T2 sequence (P31652 whole entry): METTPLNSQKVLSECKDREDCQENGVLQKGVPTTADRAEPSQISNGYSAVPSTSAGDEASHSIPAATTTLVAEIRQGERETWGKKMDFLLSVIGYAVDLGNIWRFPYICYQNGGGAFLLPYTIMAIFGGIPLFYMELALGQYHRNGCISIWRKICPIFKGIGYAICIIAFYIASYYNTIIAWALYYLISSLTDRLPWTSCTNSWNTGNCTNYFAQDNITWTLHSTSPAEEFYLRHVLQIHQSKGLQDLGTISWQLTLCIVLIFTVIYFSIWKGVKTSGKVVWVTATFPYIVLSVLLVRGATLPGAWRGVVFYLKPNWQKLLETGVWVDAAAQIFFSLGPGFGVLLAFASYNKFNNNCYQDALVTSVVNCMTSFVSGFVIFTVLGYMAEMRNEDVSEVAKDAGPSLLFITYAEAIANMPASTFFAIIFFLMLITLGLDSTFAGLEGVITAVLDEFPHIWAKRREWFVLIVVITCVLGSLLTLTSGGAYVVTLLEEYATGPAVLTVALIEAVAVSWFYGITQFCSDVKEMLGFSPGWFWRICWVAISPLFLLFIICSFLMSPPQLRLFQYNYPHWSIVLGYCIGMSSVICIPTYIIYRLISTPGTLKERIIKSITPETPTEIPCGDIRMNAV

Row | Compound | melting point | IC50 [1, 3] | IC50 [2] | other results
1 | Clc1cccc2[nH]cc(CCN3CCN(c4cccc5[nH]ccc45)CC3)c12 (as salt: oxalate) [Compound 2b, 1-(2-(4-Chloro-1H-indol-3-yl)ethyl)-4-(1H-indol-4-yl)piperazine] | 245 to 247 °C | – | – | –
2 | Brc1cccc2c(CCN3CCN(c4cccc5[nH]ccc45)CC3)c[nH]c12 (as salt: oxalate) [Compound 2i, 1-(2-(7-Bromo-1H-indol-3-yl)ethyl)-4-(1H-indol-4-yl)piperazine] | 149 to 151 °C | – | – | –
3 | COC(=O)c1cc(N2CCN(CCc3c[nH]c4ccccc34)CC2)c2cc[nH]c2c1 (as salt: oxalate) [Compound 4f, 1-(2-(1H-indol-3-yl)ethyl)-4-(6-methoxycarbonyl-1H-indol-4-yl)piperazine] | 213 to 216 °C | – | – | –
4 | COC(=O)c1cc(N2CCN(CCc3c[nH]c4cc(Cl)ccc34)CC2)c2cc[nH]c2c1 (as salt: oxalate) [Compound 4g, 1-(2-(6-Chloro-1H-indol-3-yl)ethyl)-4-(6-methoxycarbonyl-1-H-indol-4-yl)piperazine] | 228 to 230 °C | – | – | –
5 | COC(=O)c1cc(N2CCN(CCc3coc4ccc(F)cc34)CC2)c2cc[nH]c2c1 (as salt: oxalate) [Compound 4h, 1-(2-(5-Fluoro-3-benzofuranyl)ethyl)-4-(6-methoxycarbonyl-1H-indol-4-yl)piperazine] | 227 to 228 °C | – | – | –
6 | N#Cc1c[nH]c2cccc(N3CCN(CCc4coc5ccccc45)CC3)c12 (as salt: oxalate) [Compound 4p, 1-(2-(3-Benzofuranyl)ethyl)-4-(3-cyano-1H-indol-4-yl)piperazine] | 221 to 223 °C | – | – | –
7 | Cc1cccc2occ(CCN3CCN(c4cccc5[nH]ccc45)CC3)c12 (as salt: oxalate) [Compound 4r, 1-(1H-Indol-4-yl)-4-(2-(4-methyl-3-benzofuranyl)ethyl)piperazine] | 204 to 206 °C | – | – | –
8 | Clc1ccc2occ(CCN3CCN(c4cccc5[nH]ccc45)CC3)c2c1 (as salt: oxalate) [Compound 4t, 1-(2-(5-Chloro-3-benzofuranyl)ethyl)-4-(1H-indol-4-yl)piperazine] | 200 to 202 °C | – | – | –
9 | Cc1ccc2c(CCN3CCN(c4cccc5[nH]ccc45)CC3)coc2c1 (as salt: oxalate) [Compound 4u, 1-(1H-Indol-4-yl)-4-(2-(6-methyl-3-benzofuranyl)ethyl)piperazine] | 190 to 192 °C | – | – | –
10 | Clc1cccc2c(CCN3CCN(c4cccc5[nH]ccc45)CC3)coc12 (as salt: oxalate) [Compound 4v, 1-(2-(7-Chloro-3-benzofuranyl)ethyl)-4-(1H-indol-4-yl)piperazine] | 216 to 218 °C | – | – | –
11 | c1cc(N2CCN(CCc3coc4ccccc34)CC2)c2cc[nH]c2c1 [Compound 1a, 1-(2-(3-Benzofuranyl)ethyl)-4-(1H-indol-4-yl)piperazine] | – | 0.01 µM | 0.031 µM | –
12 | c1cc(N2CCN(Cc3coc4ccccc34)CC2)c2cc[nH]c2c1 [Compound 1b, 1-(3-Benzofuranylmethyl)-4-(1H-indol-4-yl)piperazine] | – | 0.21 µM | – | IC50 [2, 4]: 0.29 µM
13 | Fc1ccc2occ(CCN3CCN(c4cccc5[nH]ccc45)CC3)c2c1 [Compound 1c, 1-(2-(5-Fluoro-3-benzofuranyl)ethyl)-4-(1H-indol-4-yl)piperazine] | – | 0.012 µM | 0.057 µM | –
14 | Fc1ccc2occ(CCCCN3CCN(c4cccc5[nH]ccc45)CC3)c2c1 [Compound 1d, 1-(4-(5-Fluoro-3-benzofuranyl)-1-butyl)-4-(1H-indol-4-yl)piperazine] | – | 0.0025 µM | – | IC50 [2, 4]: 0.031 µM
15 | c1ccc2c(CCN3CCN(c4cccc5[nH]ccc45)CC3)c[nH]c2c1 [Compound 1e, 1-(2-(1H-indol-3-yl)ethyl)-4-(1H-indol-4-yl)piperazine] | – | 0.0069 µM | 0.0044 µM | –
16 | c1ccc2c(CCCN3CCN(c4cccc5[nH]ccc45)CC3)c[nH]c2c1 [Compound 1f, 1-(3-(1H-indol-3-yl)-1-propyl)-4-(1H-indol-4-yl)piperazine] | – | 0.0098 µM | – | IC50 [2, 4]: 0.0082 µM
17 | c1ccc2c(CCCCN3CCN(c4cccc5[nH]ccc45)CC3)c[nH]c2c1 [Compound 1g, 1-(4-(1H-indol-3-yl)-1-butyl)-4-(1H-indol-4yl)piperazine] | – | 0.013 µM | – | IC50 [2, 4]: 0.012 µM

Row | Compound | melting point | IC50 [1, 3] | IC50 [2] | other results
18 | Fc1ccc2occ(CCCN3CCN(c4cccc5[nH]ccc45)CC3)c2c1 [Compound 1h, 1-(3-(5-Fluoro-3-benzofuranyl)-1-propyl)-4-(1H-indol-4-yl)piperazine] | – | 0.011 µM | – | IC50 [2, 4]: 0.0068 µM
19 | Cc1oc2c(F)c(F)c(F)c(F)c2c1CCN1CCN(c2cccc3[nH]ccc23)CC1 [Compound 1i, 1-(2-(2-Methyl-4,5,6,7-tetrafluoro-3-benzofuranyl)ethyl)-4-(1H-indol-4-yl)piperaziine] | – | 0.0034 µM | – | –
20 | c1cc(N2CCN(CCc3n[nH]c4ccccc34)CC2)c2cc[nH]c2c1 [Compound 1j, 1-(2-(3-Indazolyl)ethyl)-4-(1H-indol-4-yl)piperazine] | – | – | – | IC50 [1]: 0.022 µM; IC50 [2, 4]: 0.36 µM
21 | Clc1ccc2c(CCN3CCN(c4cccc5[nH]ccc45)CC3)n[nH]c2c1 [Compound 1k, 1-(2-(6-Chloro-3-indazolyl)ethyl)-4-(1H-indol-4-yl)piperazine] | – | – | – | IC50 [1]: 0.022 µM; IC50 [2, 4]: 0.15 µM
22 | N#Cc1cccc2c(CCN3CCN(c4cccc5[nH]ccc45)CC3)c[nH]c12 [Compound 1l, 1-(2-(7-Cyano-1H-indol-3-yl)ethyl)-4-(1H-indol-4-yl)piperazine] | – | 0.0025 µM | – | –
23 | Clc1ccc2c(CCN3CCN(c4cccc5[nH]ccc45)CC3)c[nH]c2c1 [Compound 2a, 1-(2-(6-Chloro-1H-indol-3-yl)ethyl)-4-(1H-indol-4-yl)piperazine] | – | 0.0034 µM | 0.021 µM | –
24 | Clc1cccc2[nH]cc(CCN3CCN(c4cccc5[nH]ccc45)CC3)c12 [Compound 2b, 1-(2-(4-Chloro-1H-indol-3-yl)ethyl)-4-(1H-indol-4-yl)piperazine] | – | 0.011 µM | 0.0069 µM | –
25 | Fc1ccc2[nH]cc(CCN3CCN(c4cccc5[nH]ccc45)CC3)c2c1 [Compound 2c, 1-(2-(5-Fluoro-1H-indol-3-yl)ethyl)-4-(1H-indol-4-yl)piperazine] | – | 0.027 µM | 0.0023 µM | –
26 | Clc1ccc2c(CCN3CC=C(c4cccc5[nH]ccc45)CC3)c[nH]c2c1 [Compound 2g, 1-(2-(6-Chloro-1H-indol-3-yl)ethyl)-4-(1H-indol-4-yl)-1,2,3,6-tetrahydropyridine] | – | 0.0028 µM | 0.022 µM | –
27 | Fc1ccc2[nH]cc(CCN3CC=C(c4cccc5[nH]ccc45)CC3)c2c1 [Compound 2h, 1-(2-(5-Fluoro-1H-indol-3-yl)ethyl)-4-(1H-indol-4-yl)-1,2,3,6-tetrahydropyridine] | – | 0.011 µM | 0.0025 µM | –
28 | Brc1cccc2c(CCN3CCN(c4cccc5[nH]ccc45)CC3)c[nH]c12 [Compound 2i, 1-(2-(7-Bromo-1H-indol-3-yl)ethyl)-4-(1H-indol-4-yl)piperazine] | – | 0.0054 µM | 0.0059 µM | –
29 | Brc1ccc2[nH]cc(CCN3CCN(c4ccc5[nH]ccc5c4)CC3)c2c1 [Compound 2t, 1-(2-(5-Bromo-1H-indol-3-yl)ethyl)-4-(1H-indol-5-yl)piperazine] | – | 0.23 µM | 0.039 µM | –
30 | Clc1ccc2[nH]cc(CCN3CCN(c4ccc5[nH]ccc5c4)CC3)c2c1 [Compound 2u, 1-(2-(5-Chloro-1H-indol-3-yl)ethyl)-4-(1H-indol-5-yl)piperazine] | – | 0.31 µM | 0.02 µM | –
31 | OCc1cc(N2CCN(CCc3c[nH]c4ccc(F)cc34)CC2)c2cc[nH]c2c1 [Compound 3a, 1-(2-(5-Fluoro-1H-indol-3-yl)ethyl)-4-(6-hydroxymethyl-1H-indol-4-yl)piperazine] | – | 0.91 µM | 0.017 µM | –
32 | Fc1ccc2c(CCCN3CCN(c4cccc5[nH]ccc45)CC3)noc2c1 [Compound 4a, 1-(3-(6-Fluoro-1,2-benzisoxazol-3-yl)-1-propyl)-4-(1H-indol-4-yl)piperazine] | – | 0.0098 µM | – | IC50 [2, 4]: 0.36 µM
33 | N#Cc1c[nH]c2cccc(N3CCN(CCc4c[nH]c5cccc(Cl)c45)CC3)c12 [Compound 4x, 1-(2-(4-Chloro-1H-indol-3-yl)ethyl)-4-(3-cyano-1H-indol-4-yl)piperazine] | – | 0.0054 µM | – | –
